Blank lines part the entries; values can stand above or below the compound they belong to. Activity calls are given as the source filed them.
How the values were obtained:
[1] = target: Lysosomal acid glucosylceramidase (Homo sapiens, UniProt P04062); assay: Dose response cell-based high throughput screening assay to identify enhancers of beta-glucosidase activity. [Related pubchem assays: 784 ]; type: functional
[2] = target: T1, Eukaryotic translation initiation factor 2-alpha kinase 3 (Homo sapiens, UniProt Q9NZJ5); assay: Dose response cell-based high-throughput screening assay to measure PERK inhibition. [Related pubchem assays: 1416 ]; type: functional
T1 sequence (Q9NZJ5 whole entry): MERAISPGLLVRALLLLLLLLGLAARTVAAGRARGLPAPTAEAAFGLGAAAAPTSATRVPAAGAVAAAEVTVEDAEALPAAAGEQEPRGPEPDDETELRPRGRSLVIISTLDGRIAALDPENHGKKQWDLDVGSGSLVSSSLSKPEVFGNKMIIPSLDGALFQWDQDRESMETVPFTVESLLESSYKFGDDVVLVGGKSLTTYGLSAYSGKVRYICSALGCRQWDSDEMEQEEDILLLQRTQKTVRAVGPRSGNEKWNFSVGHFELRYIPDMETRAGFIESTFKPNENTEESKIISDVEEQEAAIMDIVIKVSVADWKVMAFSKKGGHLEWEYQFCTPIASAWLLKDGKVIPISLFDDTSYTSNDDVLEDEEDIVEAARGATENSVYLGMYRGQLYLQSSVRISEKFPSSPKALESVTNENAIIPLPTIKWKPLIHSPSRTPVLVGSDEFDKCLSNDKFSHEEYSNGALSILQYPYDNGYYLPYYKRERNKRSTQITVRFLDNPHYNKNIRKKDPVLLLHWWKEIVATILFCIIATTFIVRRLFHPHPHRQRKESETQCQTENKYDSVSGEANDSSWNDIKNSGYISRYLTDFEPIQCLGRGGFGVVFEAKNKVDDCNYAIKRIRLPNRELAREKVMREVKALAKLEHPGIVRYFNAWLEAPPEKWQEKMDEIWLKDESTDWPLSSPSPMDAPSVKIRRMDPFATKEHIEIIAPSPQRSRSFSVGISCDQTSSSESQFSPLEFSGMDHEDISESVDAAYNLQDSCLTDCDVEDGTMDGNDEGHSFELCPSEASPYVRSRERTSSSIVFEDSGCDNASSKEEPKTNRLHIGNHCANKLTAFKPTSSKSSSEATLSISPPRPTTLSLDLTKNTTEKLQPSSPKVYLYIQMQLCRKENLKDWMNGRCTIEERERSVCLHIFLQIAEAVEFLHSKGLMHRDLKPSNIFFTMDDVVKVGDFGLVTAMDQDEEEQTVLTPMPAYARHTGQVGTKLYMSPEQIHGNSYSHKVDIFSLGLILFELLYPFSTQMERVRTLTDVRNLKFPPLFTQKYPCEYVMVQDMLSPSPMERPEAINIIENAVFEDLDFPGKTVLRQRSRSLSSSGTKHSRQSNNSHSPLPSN

[3] = target: T1, Eukaryotic translation initiation factor 2-alpha kinase 3; assay: Counterscreen assay for PERK inhibitors: Dose response cell-based high throughput screening assay to measure inhibition of PERK at 6 hours. [Related pubchem assays: 1522, 1416 ]; type: functional
[4] = target: T2, Neuropeptide Y receptor type 1 (Homo sapiens, UniProt P25929); type: functional;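 note: HEK293 cells with a CNG channel challenged with NPY then isoproterenol; potency as antagonist that reverses NPY suppression of cAMP signal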
T2 sequence (P25929 whole entry): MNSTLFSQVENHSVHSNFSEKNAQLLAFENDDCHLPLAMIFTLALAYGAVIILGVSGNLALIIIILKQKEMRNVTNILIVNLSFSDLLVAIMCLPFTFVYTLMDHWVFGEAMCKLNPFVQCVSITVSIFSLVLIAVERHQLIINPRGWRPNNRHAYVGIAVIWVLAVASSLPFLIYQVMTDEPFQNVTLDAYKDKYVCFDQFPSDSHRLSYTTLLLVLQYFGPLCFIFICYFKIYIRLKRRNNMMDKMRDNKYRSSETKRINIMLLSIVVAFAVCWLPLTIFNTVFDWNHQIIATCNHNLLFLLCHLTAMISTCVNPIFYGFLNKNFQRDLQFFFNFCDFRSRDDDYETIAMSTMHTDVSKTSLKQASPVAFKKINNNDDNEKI

[5] = target: T3, Neuropeptide Y receptor type 2 (Homo sapiens, UniProt P49146); type: functional, cell-based;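 note: HEK293 cells expressing the receptor and a CNG channel; stimulus was NPY near EC95 followed by isoproterenol to raise cAMP; antagonist potency measured as restoring cAMP signal that NPY suppresses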
T3 sequence (P49146 whole entry): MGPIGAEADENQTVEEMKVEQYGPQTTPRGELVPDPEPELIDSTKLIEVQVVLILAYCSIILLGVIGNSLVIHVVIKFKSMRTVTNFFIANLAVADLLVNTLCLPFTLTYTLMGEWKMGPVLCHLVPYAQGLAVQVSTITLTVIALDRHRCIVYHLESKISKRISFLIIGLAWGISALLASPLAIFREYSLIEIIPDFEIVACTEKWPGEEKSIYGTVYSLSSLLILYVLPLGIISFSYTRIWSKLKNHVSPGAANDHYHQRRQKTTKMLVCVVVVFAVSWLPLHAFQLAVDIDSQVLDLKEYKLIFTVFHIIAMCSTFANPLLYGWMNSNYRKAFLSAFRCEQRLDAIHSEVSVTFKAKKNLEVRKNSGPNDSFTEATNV

[6] = viability of PTEN-deleted HCT116 cells – cell-based, HCT116 PTEN knockout, dose response (AID 1047); type: functional;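 note: HCT116 colon tumor cells with PTEN knocked out; cells exposed to compound for 60 hours before readout; potency for loss of cell viability measured by luminescence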
[7] = viability of HCT116 lacking mutant beta-catenin – cell-based, human colon tumor, dose response (AID 1045); type: functional;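 note: HCT116 colon tumor cells with beta catenin knocked out; cells exposed to compound for 60 hours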
[8] = viability of uninfected HEp-2 cells – cell-based, HTS, cytotoxicity control for RSV inhibitor project, dose response (AID 2410); type: functional; details: human respiratory syncytial virus
[9] = target: 5-hydroxytryptamine receptor 1E (Homo sapiens, UniProt P28566); assay: Counterscreen assay for S1P3 antagonists: Dose response cell-based high throughput screening assay to identify antagonists of the 5-Hydroxytryptamine Receptor Subtype 1E (5HT1E). [Related pubchem assays: 1429, 485 ]; type: functional
Sequence of 5-hydroxytryptamine receptor 1E (P28566 whole entry): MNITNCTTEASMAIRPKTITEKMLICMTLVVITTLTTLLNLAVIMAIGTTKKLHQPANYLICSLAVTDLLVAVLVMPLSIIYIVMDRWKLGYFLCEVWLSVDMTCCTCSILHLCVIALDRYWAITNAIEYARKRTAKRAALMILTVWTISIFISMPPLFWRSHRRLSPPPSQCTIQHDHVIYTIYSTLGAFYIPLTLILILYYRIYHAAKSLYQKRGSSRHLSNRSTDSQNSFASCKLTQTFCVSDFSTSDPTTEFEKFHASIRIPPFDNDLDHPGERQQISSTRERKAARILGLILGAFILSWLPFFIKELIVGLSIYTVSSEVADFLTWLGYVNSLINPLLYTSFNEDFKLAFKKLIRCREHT

[10] = Trypanosoma cruzi growth suppression in host cells – NIH3T3 host cells, beta-gal luminescence, confirmation (AID 2044); type: functional, cell-based;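 note: intracellular parasites grown in NIH/3T3 mouse fibroblasts as host cells; luminescent beta-galactosidase reporter signal from transgenic T. cruzi replicating inside host cells; inhibitors lower the luminescence signal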
[11] = NIH3T3 cell viability loss – ATP luminescence, mouse fibroblasts, counter-screen, dose response (AID 2010); type: functional, cell-based;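 note: cells exposed to compound for about 90 hours before reading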
[12] = target: Sphingosine 1-phosphate receptor 3 (Homo sapiens, UniProt Q99500); assay: Dose response cell-based high throughput screening assay for antagonists of the Sphingosine 1-Phosphate Receptor 3 (S1P3). [Related pubchem assays: 1429, 485 ]; type: functional
Sequence of Sphingosine 1-phosphate receptor 3 (Q99500 whole entry): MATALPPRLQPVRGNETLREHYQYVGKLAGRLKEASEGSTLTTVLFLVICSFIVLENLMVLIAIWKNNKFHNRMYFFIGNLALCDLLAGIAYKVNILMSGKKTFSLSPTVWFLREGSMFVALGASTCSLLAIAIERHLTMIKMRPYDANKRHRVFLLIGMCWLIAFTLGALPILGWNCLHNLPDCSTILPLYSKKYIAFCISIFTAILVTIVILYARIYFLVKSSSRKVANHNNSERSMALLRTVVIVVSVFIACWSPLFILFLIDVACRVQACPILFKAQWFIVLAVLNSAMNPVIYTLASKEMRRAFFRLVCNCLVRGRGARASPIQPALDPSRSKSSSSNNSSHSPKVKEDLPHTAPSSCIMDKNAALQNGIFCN

[13] = target: Photoreceptor-specific nuclear receptor (Homo sapiens, UniProt Q9Y5X4); type: functional;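 note: potency for compounds that break the NR2E3 corepressor complex and count as activators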
Sequence of Photoreceptor-specific nuclear receptor (Q9Y5X4 whole entry): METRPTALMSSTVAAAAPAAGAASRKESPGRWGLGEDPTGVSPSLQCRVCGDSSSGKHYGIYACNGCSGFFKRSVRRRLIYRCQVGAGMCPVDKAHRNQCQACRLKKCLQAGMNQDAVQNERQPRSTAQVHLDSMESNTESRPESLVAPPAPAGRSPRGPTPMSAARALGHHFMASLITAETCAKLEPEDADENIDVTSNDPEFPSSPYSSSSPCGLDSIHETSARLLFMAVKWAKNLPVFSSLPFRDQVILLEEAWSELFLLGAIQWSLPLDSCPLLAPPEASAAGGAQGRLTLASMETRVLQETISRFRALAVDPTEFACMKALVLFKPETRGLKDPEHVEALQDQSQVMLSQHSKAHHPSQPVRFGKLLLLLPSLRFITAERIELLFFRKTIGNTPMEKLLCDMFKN

[14] = target: Peroxisome proliferator-activated receptor gamma/Nuclear receptor corepressor 2 (Homo sapiens, UniProt P37231+Q9Y618); type: functional
[15] = target: T4, Heat shock 70 kDa protein 1A (Homo sapiens, UniProt P0DMV8); assay: small-molecule inhibition of Hsp70 – biochemical, TR-FRET (AID 786)
T4 sequence (P0DMV8 whole entry): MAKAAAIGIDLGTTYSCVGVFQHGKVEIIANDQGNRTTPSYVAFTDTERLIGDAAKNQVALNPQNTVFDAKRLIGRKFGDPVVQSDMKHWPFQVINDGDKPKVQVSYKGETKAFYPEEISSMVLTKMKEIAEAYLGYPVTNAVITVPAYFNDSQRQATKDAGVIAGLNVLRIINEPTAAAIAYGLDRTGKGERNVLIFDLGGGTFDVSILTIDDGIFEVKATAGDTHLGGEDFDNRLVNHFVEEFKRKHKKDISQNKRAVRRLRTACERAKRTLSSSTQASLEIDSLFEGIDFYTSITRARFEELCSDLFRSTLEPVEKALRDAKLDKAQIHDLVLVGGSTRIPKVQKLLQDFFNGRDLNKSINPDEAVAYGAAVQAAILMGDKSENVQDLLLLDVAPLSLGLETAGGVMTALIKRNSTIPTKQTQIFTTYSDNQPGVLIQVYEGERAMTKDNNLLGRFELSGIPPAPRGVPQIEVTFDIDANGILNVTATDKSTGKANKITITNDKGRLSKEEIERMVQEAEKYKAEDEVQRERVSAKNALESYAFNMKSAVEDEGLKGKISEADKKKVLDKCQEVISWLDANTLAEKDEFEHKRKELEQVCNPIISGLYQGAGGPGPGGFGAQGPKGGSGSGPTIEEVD

[16] = target: T4, Heat shock 70 kDa protein 1A; assay: small molecules displacing fluorescent ligand from Hsp70 – biochemical, fluorescence polarization, primary screen (AID 583)
[17] = Luminescence-based counterscreen assay for KLF5 inhibitors: dose response cell-based high throughput screening assay to identify cytotoxic compounds using the IEC-6 intestinal epithelial cell line. [Related pubchem assays: 1700 (Primary screen.), 1834 (Confirmation screen.), 1858 (Summary AID.), 1905 (Counterscreen.)]; type: functional
[18] = HEK-293T viability loss after treatment – luminescence, T-cell screen hits, cytotoxicity control for TCR NF-kB inhibitor project, dose response (AID 489026); type: functional, cell-based;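 note: cells exposed to compound about 14 hours before the viability readout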
[19] = reduction of Shn3 3'UTR-driven luciferase in osteoblasts – cell-based, Clone20 osteoblasts, firefly luciferase, cherry-picked, dose response (AID 624132); type: functional;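 note: firefly luciferase luminescence from reporter carrying the Shn3 3'UTR in osteoblasts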
[20] = blockers of HIV-1 envelope-mediated cell-cell fusion – cherry-pick, dose response (AID 652057); type: functional, cell-based
[21] = off-target signal loss in HeLa-CEM21 co-culture – HeLa F-luc CTL cells, cherry-picked, counter-screen for HIV-1 Env fusion inhibitor project, dose response (AID 652040); type: functional, cell-based;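 note: potency for signal decrease marking cytotoxic or nonspecific inhibition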
[22] = HIV-1 AD8 envelope cell-cell fusion blockers – cherry-pick, dose response (AID 652062); type: functional, cell-based;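 note: luciferase signal from cell-cell fusion driven by HIV-1 clade B AD8 Env; potency is for inhibitors of fusion seen as a drop in luminescence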
[23] = Shn3 3'UTR reporter signal decrease – cell-based, Clone20 osteoblasts, firefly luciferase, cherry-pick, set 2, Schnurri-3 inhibitor project, dose response (AID 720490); type: functional;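 note: actives lower the luminescence signal as inhibitors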
[24] = toxicity toward HepG2 liver cells – cell-based, plate reader, cherry-pick, antagonist series, cytotoxicity control, dose response (AID 743416); type: functional
[25] = blockers of bursicon-stimulated LGR2 cAMP reporter – cell-based, HEK293, CRE-luciferase reporter, cherry pick, set 2, dose response (AID 743343); type: functional;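 note: transfected cells were stimulated with diluted bursicon conditioned medium after compound addition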
[26] = blockade of melanocortin 4 receptor signaling – cell-based, plate reader, cherry pick, counter-screen for LGR2 antagonist project, dose response (AID 743444); type: functional;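 note: transfected HEK 293 cells stimulated with alpha-MSH peptide; potency of inhibitors of the alpha-MSH evoked signal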

Sequence of Lysosomal acid glucosylceramidase (P04062 whole entry): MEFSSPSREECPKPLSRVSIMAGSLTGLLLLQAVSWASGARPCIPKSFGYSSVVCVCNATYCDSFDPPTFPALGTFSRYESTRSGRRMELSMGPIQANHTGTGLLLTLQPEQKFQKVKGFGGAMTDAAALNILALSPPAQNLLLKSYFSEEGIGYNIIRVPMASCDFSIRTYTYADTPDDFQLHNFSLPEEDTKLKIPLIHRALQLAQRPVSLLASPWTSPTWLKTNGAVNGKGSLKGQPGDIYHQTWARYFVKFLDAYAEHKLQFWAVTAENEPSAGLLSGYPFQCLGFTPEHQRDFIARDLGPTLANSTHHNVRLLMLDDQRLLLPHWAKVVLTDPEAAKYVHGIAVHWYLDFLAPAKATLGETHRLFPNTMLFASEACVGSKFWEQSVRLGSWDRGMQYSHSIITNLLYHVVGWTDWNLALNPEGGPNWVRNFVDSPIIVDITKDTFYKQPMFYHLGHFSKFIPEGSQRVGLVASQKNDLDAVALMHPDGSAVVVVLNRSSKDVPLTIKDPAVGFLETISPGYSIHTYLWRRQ

Compound: Cc1cccc(N=C(S)N(CCN(C)C)Cc2cc3cc(C)cc(C)c3nc2O)c1
IC50 [4]: 6.32 µM (active) | IC50 [5]: 14.3 µM (not active) | EC50 [6]: 33.6 µM (active) | EC50 [7]: 18.1 µM (active)

Compound: CC1C(c2ccccc2)N(C)C(c2ccccc2)CC1(O)c1ccc(F)cc1 (stereo unspecified)
CC50 [8]: 19.4 µM (active) | IC50 [9]: > 50 µM (not active) | EC50 [10]: 2.78 µM (active) | EC50 [11]: > 60 µM (not active) | IC50 [12]: > 50 µM (not active)

Compound: O=C(NCCc1ccccc1)c1ccc2c(c1)OCCO2
IC50 [17]: > 39.8 µM (not active) | IC50 [18]: > 80 µM (inactive) | AC50 [19]: 2.16 µM (active) | AC50 [20]: 2.05 µM (active) | AC50 [21]: 4.51 µM (active) | AC50 [22]: 3.07 µM (active) | AC50 [23]: 2.31 µM (active) | AC50 [24]: > 52 µM (inactive) | AC50 [25]: 0.801 µM (active) | AC50 [26]: 0.885 µM (active)

The remaining lines, values ahead:

EC50 [1]: > 50 µM (not active)
Compound: Cc1cc(C)nc(Sc2nc(C)nc3c2oc2ccccc23)n1

EC50 [2]: > 55.7 µM (not active) | EC50 [3]: > 55.7 µM (not active)
Compound: COc1ccccc1NC(=O)CSc1nnc(CCC(=O)Nc2ccccc2F)n1C

IC50 [13]: 0.139 µM (active) | IC50 [14]: 0.577 µM (active)
Compound: COC(=O)CCCCC1SCC2NC(=O)NC21O (stereo unspecified)

IC50 [15]: > 100 µM (not active) | IC50 [16]: > 100 µM (not active)
Compound: Nc1nc2n(n1)C(c1ccco1)CC(c1ccc(Cl)cc1Cl)N2 (stereo unspecified)
